Source: patent US12208107B2, “Method and compositions for the treatment of anemia through the inhibition of furin” (Brigham Young University, priority 2016, dated 2025)
“Also recorded” adds a separate entry of the source. Each block holds one molecule with its values, some of them ahead of it. Residues, ends and D or L forms follow the SMILES beside them.

Tests used:
Recombinant human furin = target: T1, Recombinant human furin (Homo sapiens, UniProt P09958); assay: In vitro fluorogenic furin activity assay; type: biochemical; conditions: for inhibition of furin activity in the drug screen: fluorogenic substrate BOC-Arg-Val-Arg-Arg-AMC, FIG. 9 / FIG. 22; for fluorescence (furin activity): single drug at 110 and 220 μM, 50-minute time course
T1 construct: purchased New England BioLabs (Ipswich, MA)
T1 sequence (P09958 108-794): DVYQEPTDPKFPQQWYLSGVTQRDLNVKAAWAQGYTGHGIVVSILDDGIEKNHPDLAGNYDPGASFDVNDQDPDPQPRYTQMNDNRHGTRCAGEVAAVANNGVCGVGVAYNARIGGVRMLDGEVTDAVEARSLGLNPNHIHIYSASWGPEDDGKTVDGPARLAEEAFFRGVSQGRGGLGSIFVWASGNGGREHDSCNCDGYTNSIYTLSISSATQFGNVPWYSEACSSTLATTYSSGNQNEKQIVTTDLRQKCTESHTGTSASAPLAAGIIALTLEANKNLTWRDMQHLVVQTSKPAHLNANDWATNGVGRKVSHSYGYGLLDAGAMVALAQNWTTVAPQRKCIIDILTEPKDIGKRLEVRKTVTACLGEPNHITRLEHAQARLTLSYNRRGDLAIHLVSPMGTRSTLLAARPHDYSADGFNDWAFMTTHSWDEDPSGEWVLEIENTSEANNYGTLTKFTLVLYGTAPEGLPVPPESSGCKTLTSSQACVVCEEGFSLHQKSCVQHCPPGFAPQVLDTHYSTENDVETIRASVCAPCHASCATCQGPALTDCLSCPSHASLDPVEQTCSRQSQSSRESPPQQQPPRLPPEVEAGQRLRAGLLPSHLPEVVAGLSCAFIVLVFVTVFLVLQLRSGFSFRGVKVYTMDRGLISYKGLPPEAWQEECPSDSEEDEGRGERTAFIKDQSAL
Procedure: Recombinant human furin was purchased from New England BioLabs (Ipswich, MA). Fluorogenic furin convertase substrate BOC-Arg-Val-Arg-Arg-AMC (AMC=7-Amino-4-methylcoumarin) from Enzo Life Sciences (Farmingdale, NY) and HIV aspartyl protease inhibitors (Sigma) were dissolved in DMSO. Protease inhibitory′ drugs were prepared at a. concentration of 10 mg/mL and stored at room temperature. Furin Inhibitor II chloromethylketone was purchased from EMD Millipore (Darmstadt, Germany).
The assay was performed at pH 7.5 in buffer 50 mM HEPES, 1 mM CaCl2, 1 mM β-mercaptoethanol, 0.2 mg/mL BSA. In a total volume of 100 μL, the final concentration per well of substrate enzyme was 10 μM and 1 U/well respectively. All assays were performed at 37° C. in a 96-well fluorometer (BioTek Synergy H4 Hybrid reader) with an excitation wavelength of 345 nm and an emission wavelength of 420 nm.
Inhibitory small molecules were incubated with enzyme for 1 hour at 37° C. prior to addition of substrate to initiate the reaction. All assays were performed in triplicate. Inhibition constants were calculated based on methods previously described (Lineweaver, H. & Burk, D. The Determination of Enzyme Dissociation Constants. J. Am. Chem. Soc. 56, 658-666 (1934)). […]
The molecular docking studies predicted that PIs bind to the catalytic site of furin as well as to a putative allosteric site on furin (FIGS. 7A and 7B). A fluorescence assay was used to monitor furin activity. Furin has substrate specificity for the multi-basic consensus amino-acid sequence of Arg-X-Lys/Arg-Arg (RXRR) at the cleavage site, where X represents a neutral, polar amino acid. Peptide substrates including the furin cleavage sequence having an attached fluorescent tag were used. A fluorescence tag is quenched when it is attached to the peptide, but when furin cleaves the peptide the fluorophore is released and is able to fluoresce. The inhibitory effect of the PIs in this assay can be characterized through a positive control, in which furin actively cleaves substrate without the presence of an inhibitor.

[1] = tested on: hepcidin-25 in Huh7 cell media; assay: Hepcidin-25 quantification in Huh7 cell media by mass spectrometry; type: cell-based, human; conditions: 18 hrs; for production of mature secreted hepcidin: single PI at 15 μM, IL-6 and BMP-9 10 ng/mL each
pSTAT3 in Huh7 cells = assay: STAT3 phosphorylation Western blot after IL-6 induction, Huh7; type: cell-based, human; conditions: for inhibition of STAT3 phosphorylation (in words): 0-60 μM, IL-6 50 ng/mL
Procedure: For the STAT3 and Smad4 experiments, the cells were seeded at a density of 1.5×10^5 per flask in 5 mL of culture medium and allowed to reach 70% confluency. At time 0, the cells received fresh media and were treated with nelfinavir, ritonavir, darunavir or indinavir, at concentrations ranging from 0 to 60 μM for three hours, and then induced with IL-6 or BMP-9 (Cat, #200-06 and 120-07, PeproTech, Rocky Hill, NJ) 50 ng/mL, for 30 minutes.
(§1) After treatments, cultured cells were washed with ice-cold PBS and lysed by adding ice-cold RIP A buffer containing 50 mM Tris-HCl (pH 8), 150 mM NaCl, 1% Triton X-100, 0.5% sodium deoxycholate, 0.1% SDS, 5 mM EDTA and IX protease/phosphatase cocktail inhibitor (Thermo Fisher Scientific, Waltham, MA), Cells were scraped off the flask and were further disrupted by passing the solution through a 21 gauge needle. The extracts were then transferred to a microfuge tube and centrifuged for 20 min at 12000 rpm. Protein concentration was determined with a Lowry assay and equal amounts of the resulting protein (30 μg) were separated by 8% SDS-PAGE and then transferred to a nitrocellulose membrane (Bio-Rad).
After transfer, the membranes were blocked in Odyssey™ Blocking Buffer (927-40100, LI-COR Biosciences, Lincoln, NE) at room temperature, for 1 hour. Primary antibodies were diluted in blocking solution containing 0.2% Tween and incubated overnight at 4° C. with polyclonal antibody to ferroportin (rabbit, 1:1000 dilution; PAS-2293, Thermo Scientific, Waltham, MA), phospho-STAT3 Tyr705 and STAT3 (1:1000 dilution, (Cat. #9145 and 9139 respectively, Cell Signaling Technology, Beverly, MA). Blots were normalized by probing the membranes with either a p-actin or glucose-6-phosphate dehydrogenase polyclonal antibody (Cat. #3700 and 8866 respectively, Cell Signaling Technology, Beverly, MA). After incubation and washing with PBS-T, the membranes where incubated in the dark, in blocking solution with 0.2% Tween with IRDye 800CW Goat anti-Rabbit IgG and IRDye® 680RD Donkey anti-Mouse IgG (1:10000, LI-COR Biosciences, Lincoln, NE) for 1 hour at room temperature. The proteins were detected and visualized by fluorescence using the Odyssey Classic (LI-COR Biosciences, Lincoln, NE). Densitometry analysis of specific bands was performed with the Image Studio software.
To assess whether PIs abrogate the IL-6 signaling cascade, STATS phosphorylation (pSTAT3) was measured in the hepatocyte cell lines. PIs were incubated with both Huh7 and HepG2 cell lines for 3 hours, before the addition of IL-6 (50 ng/mL) for 30 minutes. Concentrations of PIs ranged from 0-60 μM. Following 30 minutes of IL-6 induction, cells wore immediately lysed, and proteins harvested for Western blot analysis. Untreated hepatocyte control cells are designated as healthy.

[2] = tested on: HAMP gene expression in Huh7 hepatocytes; assay: HAMP gene expression (RT-qPCR), Huh7; type: cell-based, human; conditions: IL-6/BMP-9 induced Huh7, 18 hrs; ND 15 μM, CMK 25 μM
Procedure: Cells were seeded at a density of 1.5×10^6 per T25 flask in 5 mL culture medium and allowed to reach 50% confluency. At time 0, the cells received fresh media and were then simultaneously treated with either nelfinavir or darunavir alone, or nelfinavir and darunavir at varying concentrations (2.5/2.5 μM, 5/5 μM and 7.5/7.5 μM) and induced with IL-6 and BMP-9 (10 ng/mL each) for 18 hours. […] Control groups not being induced with cytokines, are designated as ‘Healthy’.
RNA was isolated by washing tissue culture in 1×PBS, before applying QIAzol lysis reagent (Cat #79306). RNA was then purified on RNeasy mini kit columns (Cat #74104) from Qiagen. All samples were treated with Qiagen DNase (Cat #79254). Two micrograms of RNA were used for reverse transcription and subsequent SYBR® Green ROX real time PCR for the genes of interest. Reverse transcription kits (Cat #330401) and SYBR Green real-time PCR master mixes (Cat #330523) were from Qiagen (Louisville, KY). […]
Real time quantitative PCR was performed on an Applied Biosciences StepOne plus instrument and analyzed with StepOne software v2.3. The relative amounts of transcripts from each gene were normalized to reference gene GAPDH and calculated as follows: ΔΔCT=the average ΔCT of sample B−the average ΔCT of sample B, and their fold difference=2−^ΔΔCT.

[3] = tested on: prohepcidin in Huh7 cell media; assay: Prohepcidin secretion into Huh7 cell media; type: cell-based, human
Procedure: (§2) Cells were seeded at a density of 1.5×10^6 per T25 flask in 5 mL culture medium and allowed to reach 50% confluency. At time 0, the cells received fresh media and were then simultaneously treated with either nelfinavir or darunavir alone, or nelfinavir and darunavir at varying concentrations (2.5/2.5 μM, 5/5 μM and 7.5/7.5 μM) and induced with IL-6 and BMP-9 (10 ng/mL each) for 18 hours. After 18 hours, 2 mL of media were collected, aliquoted and flash frozen for mass spectrometry (MS) analysis. Control groups not being induced with cytokines, are designated as ‘Healthy’.

[4] = tested on: ferroportin in HepG2 cells; assay: Ferroportin Western blot, HepG2; type: cell-based, human; conditions: HepG2, IL-6/BMP-9 10 ng/mL each; ND 15 μM, CMK 25 μM
Procedure: as §2
as §1, with “(Bio-Rad). […]” for “(Bio-Rad).”

[5] = tested on: Female Lewis rats (PG-LPS model of ACI); assay: PG-LPS rat model of anemia of chronic inflammation; type: in vivo; conditions: for serum hepcidin, lower than in PG-LPS rats / serum prohepcidin, higher than in PG-LPS rats: ELISA; for Hb (g/dL) Day 0 / Hb (g/dL) Day 62: nelfinavir with ritonavir by oral gavage
[6] = PG-LPS rats, listed as nelfinavir
[7] = Treated Control (no PG-LPS), n = 4

Structure (SMILES): CC(C)CN(C[C@@H](O)[C@H](Cc1ccccc1)NC(=O)O[C@H]1CO[C@H]2OCC[C@H]21)S(=O)(=O)c1ccc(N)cc1 [Darunavir, [(1R, 5S, 6R)-2,8-dioxabicyclo[3.3.0]oct-6-yl] N-[(2S, 3R)-4-[(4-aminophenyl)sulfonyl-(2-methylpropyl)amino]-3-hydroxy-1-phenyl-butan-2-yl] carbamate]
type of inhibition (Lineweaver-Burk) (Recombinant human furin): uncompetitive inhibition
inhibition of furin activity in the drug screen (Recombinant human furin): three best inhibitors
fluorescence (furin activity) (Recombinant human furin): decreased fluorescence
production of mature secreted hepcidin [1]: back to basal levels
inhibition of STAT3 phosphorylation (in words) (pSTAT3 in Huh7 cells): no signs of pSTAT3 inhibition; also recorded: did not show any statistically significant inhibition; also recorded: Neither darunavir nor indinavir inhibits STAT3 phosphorylation

Structure (SMILES): CCCCCCCCCC(=O)N[C@@H](CCCN=C(N)N)C(=O)N[C@H](C(=O)N[C@@H](CCCCN)C(=O)N[C@@H](CCCN=C(N)N)C(=O)CCl)C(C)C [Dec-RVKR-CMK] (HELM PEPTIDE1{[CCCCCCCCCC(=O)[*:2]].R.V.K.R.[ClC[*:1]]}$$$$V2.0)
inhibition of furin activity in the drug screen (Recombinant human furin): full inhibition of furin
hepcidin-25 in media of cytokine-induced cells ([1]; IL-6/BMP-9 10 ng/mL each, ND 15 μM (7.5 μM each), CMK 25 μM): statistically significant drop in mature hepcidin-25 is not observed
HAMP gene expression [2]: this phenomenon was not observed
prohepcidin in media of cytokine-induced cells (in words) ([3]; IL-6/BMP-9 10 ng/mL each, 18 hr, ND 7.5 μM each, CMK 25 μM): significantly raised
secreted prohepcidin concentration, healthy cell groups ([3]; no cytokine induction): No significant difference
increase of ferroportin expression compared to IL-6/BMP-9 control [4]: 109%

Structure (SMILES): CC(C)(C)NC(=O)[C@@H]1CN(Cc2cccnc2)CCN1C[C@@H](O)C[C@@H](Cc1ccccc1)C(=O)N[C@H]1c2ccccc2C[C@H]1O [Indinavir]
inhibition of STAT3 phosphorylation (in words) (pSTAT3 in Huh7 cells): no signs of pSTAT3 inhibition; also recorded: did not show any statistically significant inhibition; also recorded: Neither darunavir nor indinavir inhibits STAT3 phosphorylation

type of inhibition (Lineweaver-Burk) (Recombinant human furin): competitive inhibition
inhibition of furin activity in the drug screen (Recombinant human furin): three best inhibitors
fluorescence (furin activity) (Recombinant human furin): decreased fluorescence
Structure (SMILES): Cc1c(O)cccc1C(=O)N[C@@H](CSc1ccccc1)[C@H](O)CN1C[C@H]2CCCC[C@H]2C[C@H]1C(=O)NC(C)(C)C [Nelfinavir]
production of mature secreted hepcidin [1]: back to basal levels
inhibition of STAT3 phosphorylation (in words) (pSTAT3 in Huh7 cells): inhibiting STAT3 phosphorylation in a dose dependent manner; also recorded: concentration dependent manner; also recorded: dose dependent inhibition
inhibition at 5 µM (pSTAT3 in Huh7 cells; Homo sapiens, Huh-7, 5 μM, 3 hrs before IL-6 50 ng/mL 30 min): 27%
inhibition at 15 µM (pSTAT3 in Huh7 cells; Homo sapiens, Huh-7, 15 μM, 3 hrs before IL-6 50 ng/mL 30 min): 46%
HAMP gene expression [2]: significant inhibitory effect
iron in bone marrow, PG-LPS rats ([5]; ICP-MS): increased significantly
iron in serum, PG-LPS rats ([5]; ICP-MS): increased significantly
liver iron content, PG-LPS rats ([5]; PG-LPS PI treated group): dropped
more serum iron than PG-LPS treated rats ([5]; PG-LPS rats): ~25%
recovery of hemoglobin and hematocrit ([5]; PG-LPS rats): did not demonstrate a recovery
serum hepcidin, lower than in PG-LPS rats ([5]; PG-LPS rats): ~2 fold
serum prohepcidin, higher than in PG-LPS rats ([5]; PG-LPS rats): ~2.5 fold
serum hepcidin, lower than in PG-LPS rats [5, 6]: approximately 2 fold
serum prohepcidin, higher than in PG-LPS rats [5, 6]: approximately 2.5 fold
recovery of hemoglobin and hematocrit [5, 6]: did not significantly recover
increase of prohepcidin ([5]; PG-LPS rats, ritonavir co-administered): 148%
inhibition of mature hepcidin production ([5]; PG-LPS rats, therapeutic serum concentration 4 ng/mL, ritonavir co-administered): 47%
transcription of HAMP mRNA in liver ([5]; PG-LPS treated animals, qPCR): did not show any statistically significant changes
Hb (g/dL) Day 0 [5, 7]: 14.4 ± 0.4 g/dL
Hb (g/dL) Day 62 [5, 7]: 15.2 ± 0.2 g/dL
HCT (%) Day 0 ([5]; Treated Control, n = 4): 41.5 ± 0.9%
HCT (%) Day 62 ([5]; Treated Control, n = 4): 44.6 ± 2.7%
MCV (fl) Day 0 ([5]; Treated Control, n = 4): 55.3 ± 0.7 fL
MCV (fl) Day 62 ([5]; Treated Control, n = 4): 49.7 ± 0.5 fL
RDW (%) Day 0 ([5]; Treated Control, n = 4): 12.6 ± 0.1%
RDW (%) Day 62 ([5]; Treated Control, n = 4): 37.2 ± 0.7%
HCT (%) Day 0 ([5]; Treated PG-LPS, n = 7): 41.5 ± 2.4%
HCT (%) Day 62 ([5]; Treated PG-LPS, n = 7): 37.6 ± 3.9%
MCV (fl) Day 0 ([5]; Treated PG-LPS, n = 7): 55.8 ± 1.5 fL
MCV (fl) Day 62 ([5]; Treated PG-LPS, n = 7): 46.7 ± 0.6 fL
RDW (%) Day 0 ([5]; Treated PG-LPS, n = 7): 13.6 ± 2.5%
RDW (%) Day 62 ([5]; Treated PG-LPS, n = 7): 42.8 ± 1.2%
Hb (g/dL) Day 0 ([5]; Treated PG-LPS, n = 7): 14.1 ± 1.1 g/dL
Hb (g/dL) Day 62 ([5]; Treated PG-LPS, n = 7): 13.0 ± 1.1 g/dL
liver ferroportin, PG-LPS rats (in words) ([5]; Western blot): significantly higher
increase in liver ferroportin, healthy rats ([5]; healthy treated rats): ~3 fold
hepcidin levels, healthy rats ([5]; healthy treated vs healthy): slightly higher
liver iron content, healthy rats ([5]; healthy treated vs healthy): dropped significantly
prohepcidin levels, healthy rats ([5]; healthy treated vs healthy): much higher
serum iron, healthy rats ([5]; healthy treated vs healthy): not significantly different
increase of ferroportin expression in animal liver ([5]; ritonavir co-administered): 2.5 fold

Structure (SMILES): CC(C)c1nc(CN(C)C(=O)N[C@H](C(=O)N[C@@H](Cc2ccccc2)C[C@H](O)[C@H](Cc2ccccc2)NC(=O)OCc2cncs2)C(C)C)cs1 [Ritonavir]
inhibition of STAT3 phosphorylation (in words) (pSTAT3 in Huh7 cells): not concentration dependent
inhibition of STAT3 phosphorylation (in words) (pSTAT3 in Huh7 cells; listed as ritonavir): dose dependent inhibition
inhibition of STAT3 phosphorylation (pSTAT3 in Huh7 cells; all concentrations tested): ~25%
average pSTAT3 inhibition (pSTAT3 in Huh7 cells; doses 5-30 μM): 27%
